Molecules are shown by their SMILES.

The target of experiment [1] is T1, Ba/F3 cells transformed with human Tel-TrkA (Homo sapiens, UniProt P04629).
T1 construct: expressed in transfected cells; host or cells: Ba/F3 murine hematopoietic progenitor cells (luciferase expressing); the other entry of the earlier key: ETV6 (P41212, Transcription factor ETV6)
As to the kind of experiment: Proliferation of Ba/F3 cells transformed with human Tel-TrkA (Ba/F3 Tel-TrkA). The class given is cell-based. The following applies: Table 1; 48 hours, Bright Glo luminescence; read-out: Ba/F3 Tel-TrkA. The source says: (§1) Compound dilutions were made in 384 well plates.
(§2) The emited luminiscence is quantified using ViewLux (PerkinElmer).

Experiment [2] has as its system parental Ba/F3 cells. Put plainly: Proliferation of parental (untransformed, wt) Ba/F3 cells (BAF3/WT). The class given is cell-based, murine. The following applies: Mus musculus, Table 1, parental cells with IL3, 48 hours. On the procedure:
as §1
Compounds were tested for their ability to inhibit the proliferation of wt Ba/F3 cells and Ba/F3 cells transformed with constitutively expressed luciferase reporter and BCR-ABL or Tel-FMS or other Tel fusion kinases (EGFR, JAK2, ALK, BMX, FGFR3, FGFR4, FGR2, FLT1, FLT3, IGF1R, INSR, KDR, KIT, LCK, LYN, MEK, MET, PDGFRα, PDGFRβ, RET, RON, ROS, SRC, SYK, TIE and TYRO) or BRafV600E. Parental Ba/F3 cells were maintained in media containing recombinant mouse IL3 and the kinase transformed Ba/F3 cells were maintained in media without IL-3. 7.5 nl of compounds were spotted to each well of 1536-well assay plates by Liquid handling System Echo 555 (Labcyte). 700 cells were then plated into each well of the assay plates in 7 uL culture media per well and compounds were tested at 0.17 nM to 10 uM in 3-fold serial dilutions. The cells were then incubated for 48 hours at 37° C. 3 uL of Bright-Glo® (Promega) was added to each well and the plates were read using ViewLux (PerkinElmer).
as §2

T1 sequence (P04629 510-796 limits assumed): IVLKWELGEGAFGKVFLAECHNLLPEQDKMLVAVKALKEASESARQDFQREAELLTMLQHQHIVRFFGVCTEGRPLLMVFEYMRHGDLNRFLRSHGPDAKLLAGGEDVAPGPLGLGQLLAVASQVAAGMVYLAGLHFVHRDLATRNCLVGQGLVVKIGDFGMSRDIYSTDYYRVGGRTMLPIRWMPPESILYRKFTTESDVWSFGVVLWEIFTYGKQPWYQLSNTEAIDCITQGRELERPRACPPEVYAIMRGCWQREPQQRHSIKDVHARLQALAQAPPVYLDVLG

With `CCNC(=O)c1cnc2ccc(N3CCCC3c3cccc(F)c3)nn12` (centres unmarked) [X-21], the IC50 in experiment [1] was 42 nM; in experiment [2], > 10000 nM.

In the case of `CCONC(=O)c1cnc2ccc(N3C[C@@H](F)C[C@@H]3c3cccc(F)c3)nn12` [X-142, N-ethoxy-6-((2R,4S)-4-fluoro-2-(3-fluorophenyl)pyrrolidin-1-yl)imidazo[1,2-b]pyridazine-3-carboxamide], the IC50 in experiment [1] was found to be 1 nM; in experiment [2], 6690 nM.

With `O=C(NCC(F)(F)C(F)(F)F)c1cnc2ccc(N3CCC[C@H]3c3cccc(F)c3)nn12` [X-60], the IC50 in experiment [1] is 35 nM; in experiment [2], > 10000 nM.

Regarding `[2H]C1([2H])CC[C@@H](c2cccc(F)c2)N1c1ccc2ncc(C(N)=O)n2n1` [X-10], the IC50 in experiment [1] was 841 nM; in experiment [2], > 10000 nM.

For the compound `N#Cc1cnc2ccc(N3CCOCC3c3cccc(F)c3)nn12` (centres unmarked) [X-3, 6-(3-(3-fluorophenyl)morpholino)imidazo[1,2-b]pyridazine-3-carbonitrile], the IC50 in experiment [1] was 957 nM; in experiment [2], > 10000 nM.

Consider `CCONC(=O)c1cnc2ccc(N3CCC[C@@H]3c3cccc(F)c3)nn12` [X-149], for which the IC50 in experiment [1] is 23 nM; in experiment [2], > 10000 nM.

As for `CS(=O)(=O)N1CC[C@@H](NC(=O)c2cnc3ccc(N4CCC[C@@H]4c4cccc(F)c4)nn23)C1` [X-70], the IC50 in experiment [1] was 293 nM; in experiment [2], > 10000 nM.

Regarding `[2H]C1([2H])C(c2cccc(F)c2)N(c2ccc3ncc(C(=O)OCC)n3n2)C([2H])([2H])C1([2H])[2H]` (centres unmarked) [X-161], the IC50 in experiment [1] is 63 nM; in experiment [2] it was > 10000 nM.

With `CC(C)(C)OC(=O)NCC(=O)Nc1cnc2ccc(N3CCC[C@@H]3c3cccc(F)c3)nn12` [X-192], the IC50 in experiment [1] was 127 nM; in experiment [2], > 10000 nM.

Take `O=C(NCCO)c1cnc2ccc(N3CCC[C@@H]3c3cccc(F)c3)nn12` [X-79]: the IC50 in experiment [1] is 61 nM; in experiment [2], > 10000 nM.

On to `CC(C)C[C@@H](CO)NC(=O)c1cnc2ccc(N3CCC[C@@H]3c3cccc(F)c3)nn12` [X-104], for which the IC50 in experiment [1] is 697 nM; in experiment [2], > 10000 nM.

Regarding `[2H]C1([2H])N(c2ccc3ncc(C(=O)OCC)n3n2)C([2H])(c2cccc(F)c2)C([2H])([2H])C1([2H])[2H]` (centres unmarked) [X-163], the results for the IC50 in experiment [1] and in experiment [2] were 79 nM and > 10000 nM, respectively.

For `CC(C)(C)NC(=O)c1cnc2ccc(N3CCC[C@@H]3c3cccc(F)c3)nn12` [X-45], the values for the IC50 in experiment [1] and in experiment [2] were 22 nM and > 10000 nM, respectively.

With `NC(=O)c1cnc2ccc(N3CC(F)(F)C[C@@H]3c3cccc(F)c3)nn12` [X-247, (R)-6-(4,4-difluoro-2-(3-fluorophenyl)pyrrolidin-1-yl)imidazo[1,2-b]pyridazine-3-carboxamide], the IC50 in experiment [1] was 34 nM; in experiment [2], > 10000 nM.

Turning to `C[C@H](O)C(=O)N1CCC(NC(=O)c2cnc3ccc(N4CCC[C@@H]4c4cccc(F)c4)nn23)CC1` [X-34], the IC50 in experiment [1] was 76 nM; in experiment [2], > 10000 nM.

`O=C(Nc1cnc2ccc(N3CC(F)(F)C[C@@H]3c3cccc(F)c3)nn12)Oc1ccccc1` [X-238]: the IC50 in experiment [1] is 445 nM; in experiment [2] it was > 10000 nM.

Take `CC(C)S(=O)(=O)N1CCC(NC(=O)c2cnc3ccc(N4CCC[C@@H]4c4cccc(F)c4)nn23)CC1` [X-32]: the IC50 in experiment [1] was 19 nM; in experiment [2], > 10000 nM.

In the case of `COC[C@H](C)NC(=O)c1cnc2ccc(N3CCC[C@@H]3c3cccc(F)c3)nn12` [X-54], the IC50 in experiment [1] was 53 nM; in experiment [2] it was > 10000 nM.

As to `NS(=O)(=O)CCNC(=O)c1cnc2ccc(N3C[C@@H](F)CC3c3cccc(F)c3)nn12` (some centres unmarked) [X-118], the IC50 was 54 nM in experiment [1] and > 10000 nM in experiment [2].

In the case of `CC(C)(Cc1ccc(F)cc1)NC(=O)c1cnc2ccc(N3CCC[C@@H]3c3cccc(F)c3)nn12` [X-41], the IC50 in experiment [1] was determined as 527 nM; in experiment [2] it was 9000 nM.

For `CCCS(=O)(=O)N1CCC(NC(=O)c2cnc3ccc(N4CCC[C@@H]4c4cccc(F)c4)nn23)CC1` [X-35], the IC50 in experiment [1] is 26 nM; in experiment [2], > 10000 nM.

For `O=C(NCCO)c1cnc2ccc(N3C[C@@H](F)C[C@@H]3c3cccc(F)c3)nn12` [X-119], the figures for the IC50 in experiment [1] and in experiment [2] were 3 nM and > 10000 nM, respectively.

Turning to `CC1(C)[C@H]2CC[C@@H](CNC(=O)c3cnc4ccc(N5CCC[C@@H]5c5cccc(F)c5)nn34)[C@@H]1C2` [X-110], the IC50 in experiment [1] was 207 nM; in experiment [2], > 9760 nM.

For the compound `COC(=O)N[C@@H](C)CNC(=O)c1cnc2ccc(N3CCC[C@@H]3c3cccc(F)c3)nn12` [X-87], the IC50 is 76 nM in experiment [1] and > 10000 nM in experiment [2].

For the compound `COC(=O)[C@@H](CO)NC(=O)c1cnc2ccc(N3CCC[C@@H]3c3cccc(F)c3)nn12` [X-98], the IC50 in experiment [1] was 354 nM; in experiment [2], > 10000 nM.

On to `COCCONC(=O)c1cnc2ccc(N3CCC[C@H]3c3cccc(F)c3)nn12` [X-148], for which the IC50 in experiment [1] is 28 nM; in experiment [2], > 10000 nM.

Consider `CC(C)(C)OC(=O)N1CCC(NC(=O)c2cnc3ccc(N4C[C@@H](F)C[C@@H]4c4cccc(F)c4)nn23)CC1` [X-115], for which the results for the IC50 in experiment [1] and in experiment [2] were 1 nM and 4600 nM, respectively.

On to `CC(C)OC(=O)Nc1cnc2ccc(N3CCC[C@@H]3c3cccc(F)c3)nn12` [X-234], for which the IC50 was 449 nM in experiment [1] and > 10000 nM in experiment [2].

In the case of `COC(=O)c1cnc2ccc(N3CCC[C@@H]3c3cccc(F)c3)nn12` [X-157], the IC50 in experiment [1] is 112 nM; in experiment [2], > 10000 nM.

Take `CS(=O)(=O)N1CCC(NC(=O)c2cnc3ccc(N4C[C@@H](F)C[C@@H]4c4cccc(F)c4)nn23)CC1` [X-121]: the results for the IC50 in experiment [1] and in experiment [2] were 2 nM and 5140 nM, respectively.

With `COc1ccc(OCC(=O)Nc2cnc3ccc(N4CCC[C@@H]4c4cccc(F)c4)nn23)cc1` [X-186], the IC50 in experiment [1] is 78 nM; in experiment [2] it was > 10000 nM.

As to `CC(C)(C)OC(=O)Nc1cnc2ccc(N3CCC[C@@H]3c3cccc(F)c3)nn12` [X-233], the IC50 in experiment [1] was 379 nM; in experiment [2], > 10000 nM.

For `CO/N=C(/N)c1cnc2ccc(N3CCC[C@@H]3c3cccc(F)c3)nn12` [X-228, (R)-6-(2-(3-fluorophenyl)pyrrolidin-1-yl)-N′-methoxyimidazo[1,2-b]pyridazine-3-carboximidamide], the results for the IC50 in experiment [1] and in experiment [2] were 132 nM and > 10000 nM, respectively.

On to `CCOC(=O)c1cnc2ccc(N3C[C@@H](F)C[C@@H]3c3cccc(F)c3)nn12` [X-165, ethyl 6-((2R,4S)-4-fluoro-2-(3-fluorophenyl)pyrrolidin-1-yl)imidazo[1,2-b]pyridazine-3-carboxylate], for which the results for the IC50 in experiment [1] and in experiment [2] were 4 nM and > 10000 nM, respectively.

Take `CC(C)[C@H](CO)NC(=O)c1cnc2ccc(N3CCC[C@@H]3c3cccc(F)c3)nn12` [X-102]: the IC50 in experiment [1] is 31 nM; in experiment [2], > 10000 nM.

`CC(C)(CO)NC(=O)c1cnc2ccc(N3CCC[C@@H]3c3cccc(F)c3)nn12` [X-83]: the IC50 in experiment [1] was 20 nM; in experiment [2], > 10000 nM.

Regarding `COc1cccc(/C=C/C(=O)c2cnc3ccc(N4CCC[C@@H]4c4cccc(F)c4)nn23)n1` [X-131], the IC50 in experiment [1] turned out to be 194 nM; in experiment [2], 1670 nM.

These data come from US8637516B2 (IRM LLC, priority 2010, dated 2014).
